The text below walks through data of the SangsterLogP compilation.

The series can be described thus: method code SF-AS, from DOI: 10.1021/acs.jmedchem.6b01691, PMID: 28051859.
As to `CSc1ccc([N+](=O)[O-])cc1`, the log partition coefficient (logP) came out at 2.64. Regarding `Cc1ccc(OC(F)F)cc1`, the lipophilicity (logP) was found to be 2.88.

Take `CSc1ccc(F)cc1`: the logP was found to be 2.77. The molecule `Fc1cccc(OC(F)F)c1` returned a logP of 2.59. In turn, `COc1cccc(F)c1` showed a logP of 2.43.

For the molecule `O=[N+]([O-])c1ccc(OC(F)F)cc1`, the logP was 1.98.

`CSc1ccc(Cl)cc1` registered a logP of 3.01. `Fc1ccc(OC(F)F)cc1` returned a logP of 2.47. Regarding `FC(F)Oc1cccc(C(F)(F)F)c1`, the logP worked out at 2.69. For `COc1ccc(C(F)(F)F)cc1`, the logP was found to be 2.87. In turn, `CSc1ccc(C)cc1` yielded a log partition coefficient (logP) of 3.01. Molecule `FC(F)Sc1ccc(Br)cc1` registered a logP of 2.96.

`CSc1ccc(Br)cc1` displayed a logP of 2.78. In the case of `CSc1ccccc1` it was 2.6; in that of `Fc1ccc(SC(F)F)cc1`, 2.92; in that of `COc1ccc(F)cc1`, 2.14. In turn, `Cc1cccc(OC(F)F)c1` displayed a logP of 2.87. Molecule `FC(F)Sc1ccccc1` showed a logP of 2.89. The result for `COc1ccc(OC(F)F)cc1` reads 2.35.

Regarding `COc1cccc(C(F)(F)F)c1`, the lipophilicity (logP) amounted to 2.79. In the case of `CC(=O)Nc1ccc(SC(F)F)cc1`, the logP was found to be 2.42.

With `COc1ccc(SC)cc1`, the logP was determined as 2.66. As to `FC(F)Oc1ccc(C(F)(F)F)cc1`, the log partition coefficient (logP) amounted to 2.76. Turning to `COc1ccc(C)cc1`, the logP was determined as 2.56. Molecule `O=[N+]([O-])c1ccc(SC(F)F)cc1` gave a logP of 2.54. Molecule `COc1ccc(SC(F)F)cc1` had a logP of 3.11. As for `FC(F)Sc1ccc(Cl)cc1`, the logP turned out to be 3.24. With `Cc1ccc(SC(F)F)cc1`, the logP turned out to be 3.41. Molecule `COc1ccc(C(=O)c2ccccc2)cc1` came in with a logP of 2.69.
